How the values were obtained:
C. elegans [1] = assay: C. elegans lifespan; assay type: in vivo
Text: Urolithins extend lifespan and improve fitness in C. elegans.

C. elegans [2] = assay: Mitochondrial function with age in C. elegans; assay type: in vivo
C. elegans [3] = assay: Activity and fitness during aging in C. elegans (mobility, pharyngeal pumping); assay type: in vivo
mitophagy = assay: Induction of mitophagy in vitro and in vivo; details: in vitro and in vivo following oral consumption

SMILES	lifespan (C. elegans [1])	mortality observed at advanced ages (C. elegans [1]; at 50 μM)	dose-response effect on lifespan (C. elegans [1]; concentrations increased from 10 to 50 μM)	accumulation of dysfunctional mitochondria with age (C. elegans [2])	mitochondrial respiratory capacity (C. elegans [2]; during aging)	normal activity during aging, including mobility and pharyngeal pumping (C. elegans [3])	induction of mitophagy (mitophagy)	effect on lifespan (C. elegans [1]; at the same concentration (not given))
O=c1oc2cc(O)ccc2c2ccc(O)cc12 [UA, urolithin A]	extended lifespan	significantly delayed the mortality	clear dose-response effect	prevented the accumulation of dysfunctional mitochondria with age	maintaining mitochondrial respiratory capacity	prolonged normal activity during aging	induces mitophagy both in vitro and in vivo	–
O=c1oc2c(O)c(O)cc3c(=O)oc4c(O)c(O)cc1c4c23 [EA]	–	–	–	–	–	–	–	no effect on lifespan
